In ChEMBL document CHEMBL3396975, “Structural development of stapled short helical peptides as vitamin D receptor (VDR)-coactivator interaction inhibitors” (Bioorg Med Chem, 2015):
Starred links: 1 amine or outer side, 2 acyl side, 3 side chain; linkers in the order of their positions; H or OH if unused. Positions of bridges follow the written chain, without caps; N, C: chain ends. Non-standard residues stand in square brackets, D forms with d. Residues, ends and D or L forms follow the SMILES beside them. *: point of attachment. X2 = O=C(C(CO)(CO)N[*:1])[*:2]; X1 = OC(C[*:1])C(O)C[*:2]; hSer = N[C@@H](CCO)C(=O)O; X3 = C(CC[*:2])C[*:1]; Aib = CC(C)(N)C(=O)O; Allyl = C=CC*

molecular target: T1, Vitamin D3 receptor (Homo sapiens, UniProt P11473); assay: Inhibition of human VDR-cofactor interaction by EnBio receptor cofactor assay system
T1 sequence (P11473 whole entry): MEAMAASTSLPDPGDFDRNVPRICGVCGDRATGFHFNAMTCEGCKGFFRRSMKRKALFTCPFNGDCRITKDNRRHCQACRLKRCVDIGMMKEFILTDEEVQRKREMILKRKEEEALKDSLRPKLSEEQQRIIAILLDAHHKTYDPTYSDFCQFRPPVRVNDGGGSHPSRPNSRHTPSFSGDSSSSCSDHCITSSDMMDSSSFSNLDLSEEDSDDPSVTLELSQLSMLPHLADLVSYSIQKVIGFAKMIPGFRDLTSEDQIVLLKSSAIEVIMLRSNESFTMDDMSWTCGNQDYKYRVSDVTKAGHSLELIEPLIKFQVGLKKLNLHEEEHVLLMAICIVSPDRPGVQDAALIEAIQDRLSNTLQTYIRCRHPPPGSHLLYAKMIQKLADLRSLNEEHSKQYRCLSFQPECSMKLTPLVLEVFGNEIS

Row | IC50 [µM] | SMILES
1 | 67 | CC(=O)N[C@@H](CC(C)C)C(=O)N[C@@H](CC(C)C)C(=O)N[C@H]1CCOCC(O)C(O)COCC[C@@H](C(N)=O)NC(=O)[C@H](CC(C)C)NC(=O)[C@H](CC(C)C)NC(=O)C(C)(C)NC1=O (stereo partly drawn) (Ac-LL[hSer][Aib]LL[hSer]-NH2; linker 3-7 via X1)
2 | 20 | CC(=O)N[C@@H](CC(C)C)C(=O)N[C@@H](CC(C)C)C(=O)N[C@H]1CCOCCCCOCC[C@@H](C(N)=O)NC(=O)[C@H](CC(C)C)NC(=O)[C@H](CC(C)C)NC(=O)C(CO)(CO)NC1=O (Ac-LL[hSer][X2]LL[hSer]-NH2; linker 3-7 via X3)
3 | 500 | C=CCOCC[C@H](NC(=O)[C@H](CC(C)C)NC(=O)[C@H](CC(C)C)NC(=O)C(C)(C)NC(=O)[C@H](CCOCC=C)NC(=O)[C@H](CC(C)C)NC(=O)[C@@H](N)CC(C)C)C(=O)O (H-LL[hSer](Allyl)[Aib]LL[hSer](Allyl)-OH)
